Results published in patent US7320978B2, “Oxazole derivatives, preparation and therapeutic use thereof” (Sanofi-Aventis, priority 2004, dated 2008).

- melting point: 175 °C
SMILES: CC(=O)C1(c2ccccc2)CCN(C(=O)c2nc(-c3ccc(Cl)cc3)c(-c3ccc(Cl)cc3Cl)o2)CC1
